Consider 15 compounds from patent US20170296550A1, “ARYL SULTAM DERIVATIVES AS RORc MODULATORS” (Genentech, Inc., priority 2013, published 2017).

The target of the assay is T1, RORc (Homo sapiens, UniProt P51449).
T1 construct: host or cells: E. coli
T1 sequence (P51449 269-508 limits assumed): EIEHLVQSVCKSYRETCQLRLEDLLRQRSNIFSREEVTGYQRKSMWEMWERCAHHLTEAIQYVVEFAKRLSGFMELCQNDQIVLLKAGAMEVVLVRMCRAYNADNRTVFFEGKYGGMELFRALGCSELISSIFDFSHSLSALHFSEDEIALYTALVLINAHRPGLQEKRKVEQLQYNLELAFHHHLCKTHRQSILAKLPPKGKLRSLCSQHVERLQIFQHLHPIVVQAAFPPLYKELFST
In words: In Vitro RORc Ligand Binding Assay (25-[3H]hydroxycholesterol radioligand, filter plate). The following applies: RORc ligand binding domain 0.6 ug/mL; 6 nM 25-[3H]hydroxycholesterol; 3 h at 25° C. As to the method:
Example 68 In Vitro RORc Ligand Binding Assay
This assay was used to determine a compound's potency in inhibiting activity of RORc by determining, Kiapp, IC50, or percent inhibition values.
On day of the assay, 100 uL of 0.05% CHAPS (in deionized H2O) was added to all wells of the GFB Unifilter plate and allowed soak for 1 h. A wash buffer of 50 mM HEPES (pH 7.4), 150 mM NaCl, and 5 mM MgCl2 was prepared to wash the filter plate. To prepare an assay buffer, BSA was added to the wash buffer to reach 0.01% and DTT was added to reach 1 mM.
For IC50 mode, 10 mM compound stocks were serially diluted in DMSO with DMSO to give 20× required final concentration in DMSO (15 uL compound+30 uL DMSO). The 20× compound stocks were diluted in DMSO with Assay Buffer 4-fold to reach 5× the final test concentration in 25% DMSO (10 uL compound+30 uL Assay Buffer). Solutions were mixed by aspiration several times with a pipette set on 50 uL volume. For the assay, 10 uL of 5× compound stock solutions in 25% DMSO were added to the assay plate in duplicate.
For two point screening, 10 mM stock compound solutions were diluted in DMSO to obtain 200 uM (20× the high test concentration) and then diluted 10-fold further to reach 20 uM (20× the low test concentration). The 20× stocks were diluted 4-fold with Assay Buffer (10 uL compound+30 uL Assay Buffer) to reach 5× the test concentrations (50 uM and 5 uM) and 10 uL were added to two assay plates for the duplicate wells. With each concentration tested on 2 plates, each set of 80 compounds used 4 assay plates (1 uM and 10 uM, with n=2).
25-hydroxycholesterol (1 uM) was used to determine the level of NSB signal is prepared in DMSO as for compounds above, then diluted in Assay Buffer to give a final concentration of 5 uM. For 25-hydroxycholesterol in 25% DMSO/75% Assay Buffer; 10 uL per well was used for NSB samples. Wells for Total Binding and No Receptor sample determination contained 10 uL of 25% DMSO/75% Assay Buffer per well.
Radioligand (25-[^3H]hydroxycholesterol) Preparation
25-[^3H]hydroxycholesterol was dilute in Assay Buffer to obtain 15 nM and vortex to mix. Add 20 uL to all wells to reach 6 nM final in the assay.
Stock receptor solution was diluted in assay buffer to obtain 1.5 ug/mL in Assay Buffer. 20 uL was added to all wells. For No R samples, 20 uL Assay Buffer was substituted for receptor solution.
Assay plates were 96-well polypropylene V-bottom plates. 10 uL of 5× compound in 25% DMSO/75% Assay Buffer was added to Test wells. 10 uL of 25% DMSO/75% Assay Buffer was added to Total Binding or No Receptor wells. 10 uL of 5 uM 25-hydroxycholesterol in 25% DMSO/75% Assay Buffer was added to NSB wells. 20 uL of 15 nM 25-[^3H]hydroxycholesterol prepared in Assay Buffer was added to all wells. 20 uL of 1.5 ug/mL RORc receptor was added to wells (or […] Assay Buffer to No R wells). Following addition to the wells, the plates were incubated 3 h at 25° C.
Using a Packard Filtermate Harvester, the filter plate were washed 4 times following transfer of the incubated samples. Plates were dry-filtered completely (2 h at 50° C. or overnight at room temperature). 50 uL Microscint 0 was added to all wells and read on Topcount protocol Inverted.
Final concentrations were as follows: 50 mM HEPES buffer (pH 7.4); 150 mM NaCl; 1 mM DTT; 5 mM MgCl2; 0.01% BSA; 5% DMSO; 0.6 ug/mL RORc receptor; 6 nM 25-[^3H]hydroxycholesterol. For NSB wells, 1 uM 25-hydroxycholesterol was also present.
The term IC50 denotes the concentration that inhibits the measured activity by half. Higher therefore signals lower potency. `C[C@H]1CCC(c2ccccc2)S(=O)(=O)N1Cc1ccc(-c2ccc(S(C)(=O)=O)cn2)cc1F` (stereo partly drawn) [Example 38, (3S)-2-[2-Fluoro-4-(5-methanesulfonyl-pyridin-2-yl)-benzyl]-3-methyl-6-phenyl-[1,2]thiazinane 1,1-dioxide] had an IC50 of 87 nM.

Regarding `C[C@H]1CCC(c2ccccc2)S(=O)(=O)N1Cc1ccc(OCc2ncccn2)cc1` (stereo partly drawn) [Example 48, (3S)-3-Methyl-6-phenyl-2-[4-(pyrimidin-2-ylmethoxy)-benzyl]-[1,2]thiazinane 1,1-dioxide], the IC50 amounted to 1630 nM.

In the case of `C[C@H]1CCC(c2ccccc2)S(=O)(=O)N1Cc1ccc(-c2cccc(CC(N)=O)c2)cc1F` (single isomer, unassigned) [Example 25], the IC50 is 208 nM.

`CC(Oc1ccc(CN2[C@@H](C)CCC(c3ccccc3)S2(=O)=O)cc1)c1ncccn1` (single isomer, unassigned) [Example 50] yielded an IC50 of 1350 nM.

As to `C[C@H]1CCC(c2ccccc2)S(=O)(=O)N1Cc1ccc(C(=O)Nc2ccon2)cc1` (stereo partly drawn) [Example 13, N-Isoxazol-3-yl-4-((3S)-3-methyl-1,1-dioxo-6-phenyl-[1,2]thiazinan-2-ylmethyl)-benzamide], the IC50 was 166 nM.

With `CNC(=O)c1ccc(-c2ccc(CN3[C@@H](C)CCC(c4ccccc4)S3(=O)=O)c(F)c2)cn1` (stereo partly drawn) [Example 36, 5-[3-Fluoro-4-((3S)-3-methyl-1,1-dioxo-6-phenyl-[1,2]thiazinan-2-ylmethyl)-phenyl]-pyridine-2-carboxylic acid methylamide], the IC50 was 1600 nM.

The compound `CC(NC(=O)c1ccc(CN2[C@@H](C)CCC(c3ccccc3)S2(=O)=O)cc1)c1ncc[nH]1` (stereo partly drawn) [Example 18, N-[1-(1H-Imidazol-2-yl)-ethyl]-4-((3S)-3-methyl-1,1-dioxo-6-phenyl-[1,2]thiazinan-2-ylmethyl)-benzamide] displayed an IC50 of 1920 nM.

For the compound `Cc1n[nH]c(C)c1-c1ccc(CN2[C@@H](C)CCC(c3ccccc3)S2(=O)=O)c(F)c1` (single isomer, unassigned) [Example 1], the IC50 turned out to be 527 nM.

The compound `C[C@H]1CCC(c2ccccc2)S(=O)(=O)N1Cc1ccc(-c2ccc(S(C)(=O)=O)nc2)cc1F` (stereo partly drawn) [Example 39, (3S)-2-[2-Fluoro-4-(6-methanesulfonyl-pyridin-3-yl)-benzyl]-3-methyl-6-phenyl-[1,2]thiazinanc 1,1-dioxide] yielded an IC50 of 151 nM.

In turn, `Cc1cnccc1COc1ccc(CN2[C@@H](C)CCC(c3ccccc3)S2(=O)=O)cc1` (stereo partly drawn) [Example 47, (3S)-3-Methyl-2-[4-(3-methyl-pyridin-4-ylmethoxy)-benzyl]-6-phenyl-[1,2]thiazinane 1,1-dioxide] had an IC50 of 205 nM.

On to `C[C@H]1CCC(c2ccccc2)S(=O)(=O)N1Cc1ccc(C(=O)N(C)c2ncco2)cc1` (stereo partly drawn) [Example 16, N-Methyl-4-((3S)-3-methyl-1,1-dioxo-6-phenyl-[1,2]thiazinan-2-ylmethyl)-N-oxazol-2-yl-benzamide], for which the IC50 was determined as 4840 nM.

Turning to `Cc1cc(COc2ccc(CN3[C@@H](C)CCC(c4ccccc4)S3(=O)=O)cc2)cc(C)n1` (stereo partly drawn) [Example 54, (3S)-2-[4-(2,6-Dimethyl-pyridin-4-ylmethoxy)-benzyl]-3-methyl-6-phenyl-[1,2]thiazinane 1,1-dioxide], the IC50 stood at 295 nM.

Turning to `Cc1noc(C)c1C(=O)Nc1ccc(CN2[C@@H](C)CCC(c3ccccc3)S2(=O)=O)c(F)c1` (single isomer, unassigned) [Example 4], the half-inhibitory concentration (IC50) is 27 nM.

Turning to `C[C@H]1CCC(c2ccccc2)S(=O)(=O)N1Cc1ccc(-c2ccc(C#N)cc2)cc1F` (stereo partly drawn) [Example 27, 3′-Fluoro-4′-((3S)-3-methyl-1,1-dioxo-6-phenyl-[1,2]thiazinan-2-ylmethyl)-biphenyl-4-carbonitrile], the concentration for half-maximal inhibition (IC50) came to 102 nM.

With `CCS(=O)(=O)c1ccc(-c2ccc(CN3[C@@H](C)CCC(c4ccccc4)S3(=O)=O)c(F)c2)cc1` (stereo partly drawn) [Example 59, (3S)-2-(4′-Ethanesulfonyl-3-fluoro-biphenyl-4-ylmethyl)-3-methyl-6-phenyl-[1,2]thiazinane 1,1-dioxide], the IC50 was found to be 69 nM.
